In patent publication US20060251689A1, “Treatment or prevention of pruritus” (Astion Development A/S, priority 2005, published 2006):
Entries after “also recorded” stand apart in the source; their conditions may differ.

Assays:
[1] = test system: moderate to severe inflammation following treatment with cryotherapy; details: topically applied; cited from earlier work
skin = details: reported in the literature; cited from earlier work
undamaged skin area = assay: Acute dermal irritation; type: in vivo
Procedure: The sample was applied at a dose of 0.5 mL, on an undamaged skin area of the right flank of each animal. The patch was secured in position with a strip of surgical adhesive tape.
On the left flank an untreated area served as the control.
The skin reactions were evaluated after 1 hour and then after 24, 48 and 72 hours following removal of the patch according to the following grading scale:
Erythema (0: No erythema, 1: Slight(barelyperceptible)erythema, 2: Definite erythema, 3: Moderate to severe erythema, 4: Severe erythema (purpie) with formation of eschars (deep lesions) preventing erythema from being grading).
Oedema (0: No oedema, 1: Very slight (barely perceptible) oedema, 2: Slight oedema (contour clearly defined), 3: Moderate oedema (thickness), 4: Severe oedema (thickness greater than 1 mm, surface larger than zone of application)

[2] = test system: oxazolone induced ear inflammation in mice; assay: Oxazolone induced mouse ear oedema assay; type: in vivo
Procedure: This screening method is commonly employed for screening and evaluation of anti-inflammatory drugs, in particular with respect to the inflammation seen in contact dermatitis. Betamethasone-17 valerate was used as the positive control. […] Betamethason was administered topically in quantities of 20 μg/ear. Betamethason was applied in the commercial form Celeston valerate® 0.1%. All groups were immunised with 20 μl oxazolone, 1.6% in ethanol 96% (w/v) on the left and the right ear. The ear thickness of all mice on both the left and right side was measured with an electronic measuring gauge. All groups were challenged with 20 μl oxazolone (1.6% in ethanol 96% (w/v)) on the left ear and the right ear. Vehicle (acetone) or test article solutions were administered 20 minutes before and 20 minutes after oxazolone challenge. 24 hours after oxazolone challenge the ear thickness of all mice was measured with an electronic measuring gauge. Mean thickness of the ears and standard deviations were calculated. Ear swelling was calculated as the difference between the ear thickness day 7 and day 8. […] Differences in ear swelling between the vehicle treated group and the other groups were tested for significance employing a non-parametric statistical method of analysis, the Mann-Whitney U test. The required level of significance was p<0.05. […] Both test articles were applied in a dose of 500 μg/ear and dissolved in 96% ethanol. Betamethason, as the positive control was administered topically in quantities of 20 μg/ear.

Phosphodiesterase PDE IV = assay: enzyme assay, Phosphodiesterase PDE IV (MDS Pharma Service No 154000); type: biochemical; details: in words, comparison
[3] = target: T1, Protein Tyrosine Kinase, SYK (Homo sapiens, UniProt P43405); assay: enzyme assay, Protein Tyrosine Kinase SYK (MDS Pharma Service No 155761); type: biochemical; details: in words, comparison
T1 construct: purchased MDS Pharma Services (printed once as 'MSD Pharma Services') 155761
Procedure: (§1) The enzyme assays were conducted by MSD Pharma Services.

[4] = target: T2, Protein Tyrosine Kinase, ZA70 (ZAP-70) (Homo sapiens, UniProt P43403); assay: enzyme assay, Protein Tyrosine Kinase ZA70 (ZAP-70) (MDS Pharma Service No 155987); type: biochemical; details: in words, comparison
T2 construct: purchased MDS Pharma Services (printed once as 'MSD Pharma Services') 155987
T2 sequence (P43403 1-619): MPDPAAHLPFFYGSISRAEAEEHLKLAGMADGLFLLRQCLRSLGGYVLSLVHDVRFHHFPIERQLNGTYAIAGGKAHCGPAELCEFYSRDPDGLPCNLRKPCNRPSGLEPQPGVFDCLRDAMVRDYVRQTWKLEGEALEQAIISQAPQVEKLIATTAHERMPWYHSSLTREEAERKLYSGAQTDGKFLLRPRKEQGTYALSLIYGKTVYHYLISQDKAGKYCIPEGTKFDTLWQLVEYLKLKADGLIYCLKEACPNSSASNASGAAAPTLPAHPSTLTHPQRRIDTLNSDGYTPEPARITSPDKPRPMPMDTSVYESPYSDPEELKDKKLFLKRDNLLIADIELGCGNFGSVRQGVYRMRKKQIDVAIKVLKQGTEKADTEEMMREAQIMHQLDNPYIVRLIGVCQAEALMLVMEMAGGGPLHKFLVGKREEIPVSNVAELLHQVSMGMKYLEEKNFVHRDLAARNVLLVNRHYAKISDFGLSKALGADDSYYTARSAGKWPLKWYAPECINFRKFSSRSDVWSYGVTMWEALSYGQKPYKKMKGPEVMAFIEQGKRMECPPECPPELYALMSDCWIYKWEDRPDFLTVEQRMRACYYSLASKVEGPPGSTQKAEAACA
Procedure: as §1

[5] = test system: Albino guinea pigs of Dunkin-Hartley strain; details: guinea pig, in vivo
Procedure: Test for skin sensitization is carried out according to the Magnusson and Kligman method (J. Invest. Dermatol. 1969. 52, 268-276) and in accordance with O.E.C.D. Guideline No. 406 of Jul. 17th, 1992, and the test method B.6 of the 96/54 E.E.C Directive.
Albino guinea pigs of Dunkin-Hartley strain were exposed to the test item after an acclimatisation period of at least five days.
The Maximum Non Necrotizing Concentration (M.N.N.C.) was determined by injecting by intradermal route the following concentrations: 2.5%, 1.25%, 0.625%, 0.3125%, 0.1562% and 0.078% diluted in physiological saline solution.
Pre-Maximum Non Irritant Concentration (pre-M.N.I.C.) was determined by application of the test item under an occlusive dressing during 24 hours, at the following concentrations: 2.5%, 1.25%, 0.625%, 0.3125% diluted in physiological saline solution.
Maximum Non Irritant Concentration (M.N.I.C.) was determined by initially establishing an induction phase by intradermal injection with a physiological saline solution and by topical application of distilled water followed by a 18-day rest phase. In the challenge phase where the test item is under occlusive dressing for 24 hours, the test item was applied to the skin of the Albino guinea pigs at the following concentrations: 2.5%, 1.25%, 0.625%, 0.3125% diluted in physiological saline solution.

[6] = test system: experimental contact dermatitis; details: topically applied; cited from earlier work

In the case of `CCC(=O)O[C@]1(C(=O)CCl)[C@@H](C)C[C@H]2[C@@H]3CCC4=CC(=O)C=C[C@]4(C)[C@@]3(F)[C@@H](O)C[C@@]21C` [clobetasol propionate], the “relieving the erythema and oedema” value [1] is listed as “proved to have effect”.
For `CN1C(C(=O)Nc2ccccn2)=C(O)c2ccccc2S1(=O)=O` [piroxicam], the cutaneous side effects (skin) is given as “phototoxic or photoallergic dermatitis”.
For `O=C(O)CCc1nc(-c2ccccc2)c(-c2ccccc2)o1` [Oxaprozin, 4,5-diphenyl-2-oxazole-propionic acid], the “cutaneous reactions (erythema and oedema)” value (undamaged skin area; 2.5% by weight in water (monoethanolamine salt), 0.5 mL, 1, 24, 48 and 72 hours) was “no cutaneous reactions”, the “erythema on the treated area” value (undamaged skin area; 5% by weight in water (monoethanolamine salt), 0.5 mL, reading time 1 hour) was “slight erythema” and the “reversibility of the erythema” value (undamaged skin area; 5% by weight, between the 2nd and the 3rd day of the test) was “totally reversible”. For the same compound, the “inhibition of the formation of ear oedema” value ([2]; Example 7, 500 μg/ear dissolved in 96% ethanol) was “statistically significant inhibition”.
With `CCCCC(=O)O[C@]1(C(=O)CO)[C@@H](C)C[C@H]2[C@@H]3CCC4=CC(=O)C=C[C@]4(C)[C@@]3(F)[C@@H](O)C[C@@]21C` [Betamethasone 17-valerate] the “% inhibition of ear swelling” value ([2]; 20 μg/ear topical (Celeston valerate 0.1%), 24 hours after challenge) was 66%.
In the case of `CCCCOc1ccc(CC(=O)NO)cc1` [Bufexamac], the cutaneous side effects (skin) is listed as “cause contact allergy; also recorded: major contact allergens”, the “inhibitory effect on the PDE-IV enzyme” value (Phosphodiesterase PDE IV) is listed as “inhibitory effect” and the “inhibitory effect on Protein Tyrosine Kinase SYK” value [3] is listed as “only exhibits inhibitory effect on the PDE-IV enzyme”. For the same compound, the “inhibitory effect on Protein Tyrosine Kinase ZAP-70” value [4] was “only exhibits inhibitory effect on the PDE-IV enzyme”.
In the case of `O=C(O)Cc1ccccc1Nc1c(Cl)cccc1Cl` [Diclofenac], the cutaneous side effects (skin) is given as “irritant-type contact dermatitis may develop”.
For `O=C(O)CCc1nc(-c2ccccc2)c(-c2ccccc2)o1` [Monoethanolamine Oxaprozin], the “inhibition of ear swelling (conclusion in words)” value ([2]; 250-1000 μg/ear topical) was “dose dependent and highly significant inhibition” and the “sensitization, macroscopic cutaneous reactions in the challenge phase” value [5] was “No macroscopic cutaneous reactions attributable to allergy”.
For `CC(C(=O)O)c1cccc(C(=O)c2ccccc2)c1` (stereo not shown) [Ketoprofen], the cutaneous side effects (skin) is listed as “major contact allergens”.
In the case of `CC(=O)Oc1ccccc1C(=O)O` [aspirin], the cutaneous side effects (skin) is listed as “may induce urticarial reactions”.
In the case of `COc1ccc2c(c1)c(CC(=O)O)c(C)n2C(=O)c1ccc(Cl)cc1` [indomethacin], the cutaneous side effects (skin) is listed as “may induce urticarial reactions”, the “response in an animal model of contact dermatitis” value [6] is listed as “has been shown to respond” and the “relieving the erythema and oedema” value [1] is listed as “poor effect”.
